Test results as given in patent US11458123B2 (Arvinas, Inc., priority 2016, dated 2022).

Tested on: tau protein
Assay: Tau protein in vitro degradation assay (Western blot, Tau-13 antibody)
Format: cell-based, human
Conditions: SK-N-SH cells; 72 hours of incubation; tested at 300 nM, 100 nM, 33 nM and 11 nM; Western blot, Tau-13 antibody
Method in brief: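 SK-N-SH cells, seeded ≥18 h beforehand, were incubated 72 h with tau PROTACs at 1000, 300 and 100 nM or at 300, 100, 33 and 11 nM. Lysates in protease-inhibitor buffer were resolved by SDS-PAGE; tau quantified by Western blot with Tau-13 antibody recognising all human tau forms.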

| Structure (SMILES) | Degradation activity* (highest amount of degradation observed at any dosage; tau protein remaining) |
| --- | --- |
| O=C1CCC(N2C(=O)c3ccc(OCCCc4ccc(O[C@H]5C[C@H](Oc6ccc(-c7ccc8c(c7)[nH]c7ccncc78)cn6)C5)cn4)cc3C2=O)C(=O)N1 (stereo partly drawn) [Compound 77, 5-(3-(5-((1r,3r)-3-((5-(5H-pyrido[4,3-b]indol-7-yl)pyridin-2-yl)oxy)cyclobutoxy)pyridin-2-yl)propoxy)-2-(2,6-dioxopiperidin-3-yl)isoindoline-1,3-dione] | C (>80% tau protein remaining after 72 hours of incubation with the test compound) |
| Cn1c2ccncc2c2ccc(-c3ccc(O[C@H]4C[C@H](OCCCCCCN5CCN(c6ccc7c(c6)C(=O)N(C6CCC(=O)NC6=O)C7=O)CC5)C4)nc3)cc21 (stereo partly drawn) [Compound 78, 2-(2,6-dioxopiperidin-3-yl)-5-(4-(6-((1r,3r)-3-((5-(5-methyl-5H-pyrido[4,3-b]indol-7-yl)pyridin-2-yl)oxy)cyclobutoxy)hexyl)piperazin-1-yl)isoindoline-1,3-dione] | C (>80% tau protein remaining after 72 hours of incubation with the test compound) |
| Cn1c2ccncc2c2ccc(-c3ccc(OCCCCCOCCCCCOC4CN(c5ccc6c(c5)C(=O)N(C5CCC(=O)NC5=O)C6=O)C4)nc3)cc21 (stereo not drawn) [Compound 79, 2-(2,6-dioxopiperidin-3-yl)-5-(3-((5-((5-((5-(5-methyl-5H-pyrido[4,3-b]indol-7-yl)pyridin-2-yl)oxy)pentyl)oxy)pentyl)oxy)azetidin-1-yl)isoindoline-1,3-dione] | A (≤50% tau protein remaining after 72 hours of incubation with the test compound) |
| Cn1c2ccncc2c2ccc(-c3ccc(OCCCCCOCCCCCN4CC(Oc5ccc6c(c5)C(=O)N(C5CCC(=O)NC5=O)C6=O)C4)nc3)cc21 (stereo not drawn) [Compound 80, 2-(2,6-dioxopiperidin-3-yl)-5-((1-(5-((5-((5-(5-methyl-5H-pyrido[4,3-b]indol-7-yl)pyridin-2-yl)oxy)pentyl)oxy)pentyl)azetidin-3-yl)oxy)isoindoline-1,3-dione] | A (≤50% tau protein remaining after 72 hours of incubation with the test compound) |
| O=C1CCC(N2C(=O)c3cc(F)c(OCCOCCOCCOCCOCCOc4ccc(-c5ccc6c(c5)[nH]c5ccncc56)cn4)cc3C2=O)C(=O)N1 (stereo not drawn) [Compound 81, 5-((14-((5-(5H-pyrido[4,3-b]indol-7-yl)pyridin-2-yl)oxy)-3,6,9,12-tetraoxatetradecyl)oxy)-2-(2,6-dioxopiperidin-3-yl)-6-fluoroisoindoline-1,3-dione] | A (≤50% tau protein remaining after 72 hours of incubation with the test compound) |
| Cn1c2ccncc2c2ccc(-c3ccc(O[C@H]4C[C@H](OC5CCN(CCCCCOc6ccc7c(c6)C(=O)N(C6CCC(=O)NC6=O)C7=O)CC5)C4)nc3)cc21 (stereo partly drawn) [Compound 82, 2-(2,6-dioxopiperidin-3-yl)-5-((5-(4-((1r,3r)-3-((5-(5-methyl-5H-pyrido[4,3-b]indol-7-yl)pyridin-2-yl)oxy)cyclobutoxy)piperidin-1-yl)pentyl)oxy)isoindoline-1,3-dione] | C (>80% tau protein remaining after 72 hours of incubation with the test compound) |
| O=C1CCC(N2C(=O)c3ccc(OCCCCCc4ccc(O[C@H]5C[C@H](Oc6ccc(-c7ccc8c(c7)[nH]c7ccncc78)cn6)C5)cn4)cc3C2=O)C(=O)N1 (stereo partly drawn) [Compound 83, 5-((5-(5-((1r,3r)-3-((5-(5H-pyrido[4,3-b]indol-7-yl)pyridin-2-yl)oxy)cyclobutoxy)pyridin-2-yl)pentyl)oxy)-2-(2,6-dioxopiperidin-3-yl)isoindoline-1,3-dione] | C (>80% tau protein remaining after 72 hours of incubation with the test compound) |
| Cn1c2ccncc2c2ccc(-c3ccc(O[C@H]4C[C@H](Oc5cccc(OCCCCCCOc6ccc7c(c6)C(=O)N(C6CCC(=O)NC6=O)C7=O)c5)C4)nc3)cc21 (stereo partly drawn) [Compound 84, 2-(2,6-dioxopiperidin-3-yl)-5-((6-(3-((1r,3r)-3-((5-(5-methyl-5H-pyrido[4,3-b]indol-7-yl)pyridin-2-yl)oxy)cyclobutoxy)phenoxy)hexyl)oxy)isoindoline-1,3-dione] | C (>80% tau protein remaining after 72 hours of incubation with the test compound) |
| Cn1c2ccncc2c2ccc(-c3ccc(OCCCCCOCCCCCO[C@H]4C[C@H](Oc5ccc6c(c5)C(=O)N(C5CCC(=O)NC5=O)C6=O)C4)nc3)cc21 (stereo partly drawn) [Compound 85, 2-(2,6-dioxopiperidin-3-yl)-5-((1r,3r)-3-((5-((5-((5-(5-methyl-5H-pyrido[4,3-b]indol-7-yl)pyridin-2-yl)oxy)pentyl)oxy)pentyl)oxy)cyclobutoxy)isoindoline-1,3-dione] | A (≤50% tau protein remaining after 72 hours of incubation with the test compound) |
| O=C1CCC(N2C(=O)c3cccc(NCCOCCOCCOCCOCCOc4ccc(-c5ccc6c(c5)[nH]c5ccncc56)cc4)c3C2=O)C(=O)N1 (stereo not drawn) [Compound 86, 4-((14-(4-(5H-pyrido[4,3-b]indol-7-yl)phenoxy)-3,6,9,12-tetraoxatetradecyl)amino)-2-(2,6-dioxopiperidin-3-yl)isoindoline-1,3-dione] | C (>80% tau protein remaining after 72 hours of incubation with the test compound) |
| O=C1CCC(N2C(=O)c3cnc(OCCOCCOCCOCCOCCOc4ccc(-c5ccc6c(c5)[nH]c5ccncc56)cn4)cc3C2=O)C(=O)N1 (stereo not drawn) [Compound 87, 6-((14-((5-(5H-pyrido[4,3-b]indol-7-yl)pyridin-2-yl)oxy)-3,6,9,12-tetraoxatetradecyl)oxy)-2-(2,6-dioxopiperidin-3-yl)-1H-pyrrolo[3,4-c]pyridine-1,3 (2H)-dione] | C (>80% tau protein remaining after 72 hours of incubation with the test compound) |
| O=C1CCC(N2C(=O)c3ccc(OCCOCCOCCOCCOCCOc4ccc(-c5ccc6c7cnccc7n(CC(F)(F)F)c6c5)cn4)cc3C2=O)C(=O)N1 (stereo not drawn) [Compound 88, 2-(2,6-dioxopiperidin-3-yl)-5-((14-((5-(5-(2,2,2-trifluoroethyl)-5H-pyrido[4,3-b]indol-7-yl)pyridin-2-yl)oxy)-3,6,9,12-tetraoxatetradecyl)oxy)isoindoline-1,3-dione] | A (≤50% tau protein remaining after 72 hours of incubation with the test compound) |
| Cn1c2ccncc2c2ccc(-c3ccc(OCCCCCOCCOC(CC4CCN(c5ccc6c(c5)C(=O)N(C5CCC(=O)NC5=O)C6=O)CC4)C(F)(F)F)nc3)cc21 (stereo not drawn) [Compound 89, 2-(2,6-dioxopiperidin-3-yl)-5-(4-(3,3,3-trifluoro-2-(2-((5-((5-(5-methyl-5H-pyrido[4,3-b]indol-7-yl)pyridin-2-yl)oxy)pentyl)oxy)ethoxy)propyl)piperidin-1-yl)isoindoline-1,3-dione] | C (>80% tau protein remaining after 72 hours of incubation with the test compound) |
| Cn1c2ccncc2c2ccc(-c3ccc(OCC#CCOCCCCOCCCCOc4ccc5c(c4)C(=O)N(C4CCC(=O)NC4=O)C5=O)nc3)cc21 (stereo not drawn) [Compound 90, 2-(2,6-dioxopiperidin-3-yl)-5-(4-(4-((4-((5-(5-methyl-5H-pyrido[4,3-b]indol-7-yl)pyridin-2-yl)oxy)but-2-yn-1-yl)oxy)butoxy)butoxy)isoindoline-1,3-dione] | A (≤50% tau protein remaining after 72 hours of incubation with the test compound) |
| Cn1c2ccncc2c2ccc(-c3ccc(O[C@H]4C[C@H](OCCCCCCCCN5CCN(c6ccc7c(c6)C(=O)N(C6CCC(=O)NC6=O)C7=O)CC5)C4)nc3)cc21 (stereo partly drawn) [Compound 91, 2-(2,6-dioxopiperidin-3-yl)-5-(4-(8-((1r,3r)-3-((5-(5-methyl-5H-pyrido[4,3-b]indol-7-yl)pyridin-2-yl)oxy)cyclobutoxy)octyl)piperazin-1-yl)isoindoline-1,3-dione] | C (>80% tau protein remaining after 72 hours of incubation with the test compound) |
| Cn1c2ccncc2c2ccc(-c3cnc(OCCOCCOCCOCCOCCOc4ccc5c(c4)C(=O)N(C4CCC(=O)NC4=O)C5=O)c(Cl)c3)cc21 (stereo not drawn) [Compound 92, 5-((14-((3-chloro-5-(5-methyl-5H-pyrido[4,3-b]indol-7-yl)pyridin-2-yl)oxy)-3,6,9,12-tetraoxatetradecyl)oxy)-2-(2,6-dioxopiperidin-3-yl)isoindoline-1,3-dione] | A (≤50% tau protein remaining after 72 hours of incubation with the test compound) |
| Cn1c2ccncc2c2ccc(-c3ccc(C(F)(F)COCCCCCOCCCCCCOc4ccc5c(c4)C(=O)N(C4CCC(=O)NC4=O)C5=O)nc3)cc21 (stereo not drawn) [Compound 93, 5-((6-((5-(2,2-difluoro-2-(5-(5-methyl-5H-pyrido[4,3-b]indol-7-yl)pyridin-2-yl)ethoxy)pentyl)oxy)hexyl)oxy)-2-(2,6-dioxopiperidin-3-yl)isoindoline-1,3-dione] | C (>80% tau protein remaining after 72 hours of incubation with the test compound) |
| Cn1c2ccncc2c2ccc(-c3ccc(O[C@H]4C[C@H](Oc5ccc(C#CCCCOc6ccc7c(c6)C(=O)N(C6CCC(=O)NC6=O)C7=O)nc5)C4)nc3)cc21 (stereo partly drawn) [Compound 94, 2-(2,6-dioxopiperidin-3-yl)-5-((5-(5-((1r,3r)-3-((5-(5-methyl-5H-pyrido[4,3-b]indol-7-yl)pyridin-2-yl)oxy)cyclobutoxy)pyridin-2-yl)pent-4-yn-1-yl)oxy)isoindoline-1,3-dione] | C (>80% tau protein remaining after 72 hours of incubation with the test compound) |
